Laboratory results taken from patent EP3120851A1, “4-AMINO-6-(2,6-DICHLOROPHENYL)-8-METHYL-2-(PHENYLAMINO)-PYRIDO[2,3-D]PYRIMIDIN-7(8H)-ONE FOR TREATMENT OF SOLID CANCERS” (Pangaea Biotech S.L., priority 2015, dated 2017).

Assays:
Assay in all cases: radiometric protein kinase assay (33PanQinase Activity Assay)
Type in all cases: biochemical
Details in all cases: singlicate, read-out: residual activity
[1] = target: T1, ABL2 (Homo sapiens, UniProt P42684)
T1 construct: GST or His (not specified per kinase); purchased ProQinase (panel service); host or cells: Sf9 insect cells or E. coli
Method: (§1) In a first experiment, the kinase inhibition profile of the compound of formula (1) was evaluated at Proqinase (http://www.proqinase.com) by measuring residual activity values at a concentration of 10 µM of the test compound in singlicate in front of the following kinases: ABL2, EPHA3, CSF1-R, DDR2 wt, DDR2 N456 S, EGF-R d746-750, EGF-R d747-752/P753S, EGF-R G719C, EGF-R G719S, EGF-R L858R, EGF-R L861Q, EGF-R wt, EPHA1, EPHA2, EPHB1, ERBB4, LCK, MINK1, RAF1 Y340D/Y341D (untagged), RIPK2, STK17A. In a second experiment, the kinase inhibition profile of the compound of formula (1) was evaluated at Proqinase (http://www.proqinase.com) by measuring residual activity values at a concentration of 0.5 and 10 µM of the test compound in singlicate in front of a panel of 300 kinases using the following protocol:
(§2) The compounds were dissolved to 1 x 10^-03 M stock solutions in 100% DMSO. Subsequently, 100 µl of each stock solution were transferred into wells A3-F12 of a microtiter plate ("master plate"). Wells A1-F2 were filled with 100 µl 100% DMSO as controls. 5 x 10 µl of the master plate were aliquoted into 5 copy plates, which were stored at -20° Celsius until use. For the testing of each group of up to 8 kinases, one copy plate was used.
(§3) In the process, 90 µl H2O were added to each well of a copy plate. To minimize precipitation, the H2O was added to each well only a few minutes before the transfer of the compound solutions into the assay plates. The plate was shaken thoroughly, resulting in a "compound dilution plate" with a compound concentration of 1 x 10^-04 M/10 % DMSO. This plate was used for the transfer of 5 µl compound solution into the assay plates. The final volume of the assay was 50 µl. All compounds were tested at 1 x 10^-05 M in singlicate. The final DMSO concentration in the reaction cocktails was 1 % in all cases. The compound dilution plates were disposed at the end of each working day.
(§4) A radiometric protein kinase assay (^33PanQinase® Activity Assay) was used for measuring the kinase activity of the corresponding protein kinases. All kinase assays were performed in 96-well FlashPlatesTM from Perkin Elmer (Boston, MA, USA) in a 50 µl reaction volume. The reaction cocktail was pipetted in 4 steps in the following order: • 10 µl of non-radioactive ATP solution (in H2O) • 25 µl of assay buffer/ [γ-33P]-ATP mixture • 5 µl of test sample in 10% DMSO • 10 µl of enzyme/substrate mixture
(§5) The protein kinase reaction cocktails were incubated at 30°C for 60 minutes. The reaction was stopped with 50 µl of 2 % (v/v) H3PO4, plates were aspirated and washed two times with 200 µl 0.9 % (w/v) NaCl. All assays were performed with a BeckmanCoulter Biomek 2000/SL robotic system. Incorporation of ^33Pi (counting of "cpm") was determined with a microplate scintillation counter (Microbeta, Wallac).
(§6) All protein kinase assays were performed with a BeckmanCoulter Core robotic system.
(§7) All protein kinases provided by ProQinase were expressed in Sf9 insect cells or in E.coli as recombinant GST-fusion proteins or His-tagged proteins. All kinases were produced from human cDNAs and purified by either GSH-affinity chromatography or immobilized metal. Affinity tags were removed from a number of kinases during purification. The purity of the protein kinases was examined by SDS-PAGE/Coomassie staining, the identity was checked by mass spectroscopy.
(§8) Kinases from external vendors (CAR = Carna Biosciences Inc.; INV = Life Technologies (Invitrogen Corporation); MIL = Merck-Millipore (Millipore Corporation)) were expressed, purified and quality-controlled by virtue of the vendors readings.
(§9) For each kinase, the median value of the cpm of six wells of column 1 of each assay plate was defined as "low control" (n=6). This value reflects unspecific binding of radioactivity to the plate in the absence of a protein kinase but in the presence of the substrate. […]

[2] = target: T2, EGF-R wt (Homo sapiens, UniProt P00533)
T2 construct: GST or His (not specified per kinase); purchased ProQinase (panel service); host or cells: Sf9 insect cells or E. coli
Method: as §1, §2, §3, §4, §5, §6, §7, §8, §9

[3] = target: T3, EPHA3 (Homo sapiens, UniProt P29320)
T3 construct: GST or His (not specified per kinase); purchased ProQinase (panel service); host or cells: Sf9 insect cells or E. coli
Method: as §1, §2, §3, §4, §5, §6, §7, §8, §9

[4] = target: T4, EPHB1 (Homo sapiens, UniProt P54762)
T4 construct: GST or His (not specified per kinase); purchased ProQinase (panel service); host or cells: Sf9 insect cells or E. coli
Method: as §1, §2, §3, §4, §5, §6, §7, §8, §9

[5] = target: T5, EGF-R G719C (Homo sapiens, UniProt P00533, G719C)
T5 construct: GST or His (not specified per kinase); purchased ProQinase (panel service); host or cells: Sf9 insect cells or E. coli
Method: as §1, §2, §3, §4, §5, §6, §7, §8, §9

[6] = target: T6, LCK (Homo sapiens, UniProt P06239)
T6 construct: GST or His (not specified per kinase); purchased ProQinase (panel service); host or cells: Sf9 insect cells or E. coli
Method: as §1, §2, §3, §4, §5, §6, §7, §8, §9

[7] = target: T7, EGF-R G719S (Homo sapiens, UniProt P00533, G719S)
T7 construct: GST or His (not specified per kinase); purchased ProQinase (panel service); host or cells: Sf9 insect cells or E. coli
Method: as §1, §2, §3, §4, §5, §6, §7, §8, §9

[8] = target: T8, EPHA1 (Homo sapiens, UniProt P21709)
T8 construct: GST or His (not specified per kinase); purchased ProQinase (panel service); host or cells: Sf9 insect cells or E. coli
Method: as §1, §2, §3, §4, §5, §6, §7, §8, §9

[9] = target: T9, DDR2 N456S (Homo sapiens, UniProt Q16832, N456S)
T9 construct: GST or His (not specified per kinase); purchased ProQinase (panel service); host or cells: Sf9 insect cells or E. coli
Method: as §1, §2, §3, §4, §5, §6, §7, §8, §9

[10] = target: T10, EGF-R L858R (Homo sapiens, UniProt P00533, L858R)
T10 construct: GST or His (not specified per kinase); purchased ProQinase (panel service); host or cells: Sf9 insect cells or E. coli
Method: as §1, §2, §3, §4, §5, §6, §7, §8, §9

[11] = target: T11, ERBB4 (Homo sapiens, UniProt Q15303)
T11 construct: GST or His (not specified per kinase); purchased ProQinase (panel service); host or cells: Sf9 insect cells or E. coli
Method: as §1, §2, §3, §4, §5, §6, §7, §8, §9

[12] = target: T12, EGF-R d747-752/P753S (Homo sapiens, UniProt P00533, DEL747-752/P753S)
T12 construct: GST or His (not specified per kinase); purchased ProQinase (panel service); host or cells: Sf9 insect cells or E. coli
Method: as §1, §2, §3, §4, §5, §6, §7, §8, §9

[13] = target: T13, EPHA2 (Homo sapiens, UniProt P29317)
T13 construct: GST or His (not specified per kinase); purchased ProQinase (panel service); host or cells: Sf9 insect cells or E. coli
Method: as §1, §2, §3, §4, §5, §6, §7, §8, §9

[14] = target: T14, EGF-R d746-750 (Homo sapiens, UniProt P00533, DEL746-750)
T14 construct: GST or His (not specified per kinase); purchased ProQinase (panel service); host or cells: Sf9 insect cells or E. coli
Method: as §1, §2, §3, §4, §5, §6, §7, §8, §9

T10 sequence (P00533 25-1210 L858R): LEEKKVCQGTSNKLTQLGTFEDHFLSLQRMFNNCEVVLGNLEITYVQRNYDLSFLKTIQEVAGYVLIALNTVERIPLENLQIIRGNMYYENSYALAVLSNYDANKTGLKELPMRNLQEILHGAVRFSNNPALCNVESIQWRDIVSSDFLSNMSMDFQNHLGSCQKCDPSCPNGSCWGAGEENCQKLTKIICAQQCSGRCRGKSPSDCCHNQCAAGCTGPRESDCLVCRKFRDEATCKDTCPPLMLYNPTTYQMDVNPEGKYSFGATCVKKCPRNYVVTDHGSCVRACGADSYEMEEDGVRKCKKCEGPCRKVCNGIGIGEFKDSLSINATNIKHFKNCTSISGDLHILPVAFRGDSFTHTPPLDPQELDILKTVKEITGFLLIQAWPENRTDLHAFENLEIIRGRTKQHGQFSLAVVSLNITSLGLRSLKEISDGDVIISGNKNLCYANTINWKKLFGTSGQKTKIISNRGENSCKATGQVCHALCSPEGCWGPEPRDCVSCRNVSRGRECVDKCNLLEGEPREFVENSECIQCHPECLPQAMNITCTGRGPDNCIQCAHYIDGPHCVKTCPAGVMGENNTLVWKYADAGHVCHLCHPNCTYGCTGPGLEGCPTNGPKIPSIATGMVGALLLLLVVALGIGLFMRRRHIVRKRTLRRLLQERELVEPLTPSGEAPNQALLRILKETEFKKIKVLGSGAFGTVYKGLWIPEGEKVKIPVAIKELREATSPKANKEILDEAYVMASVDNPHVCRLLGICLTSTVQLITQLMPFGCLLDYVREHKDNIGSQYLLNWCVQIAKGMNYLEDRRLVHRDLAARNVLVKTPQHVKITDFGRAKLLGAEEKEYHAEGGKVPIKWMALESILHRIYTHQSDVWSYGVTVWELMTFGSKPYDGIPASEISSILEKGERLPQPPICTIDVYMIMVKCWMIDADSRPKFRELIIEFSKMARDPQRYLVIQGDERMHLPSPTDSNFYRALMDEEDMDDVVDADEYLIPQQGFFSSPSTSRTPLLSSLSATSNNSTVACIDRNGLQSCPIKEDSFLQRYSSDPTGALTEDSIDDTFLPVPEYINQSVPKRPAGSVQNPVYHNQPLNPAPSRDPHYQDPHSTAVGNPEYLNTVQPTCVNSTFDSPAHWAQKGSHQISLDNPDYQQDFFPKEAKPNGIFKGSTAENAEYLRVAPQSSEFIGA
T4 sequence (P54762 18-984): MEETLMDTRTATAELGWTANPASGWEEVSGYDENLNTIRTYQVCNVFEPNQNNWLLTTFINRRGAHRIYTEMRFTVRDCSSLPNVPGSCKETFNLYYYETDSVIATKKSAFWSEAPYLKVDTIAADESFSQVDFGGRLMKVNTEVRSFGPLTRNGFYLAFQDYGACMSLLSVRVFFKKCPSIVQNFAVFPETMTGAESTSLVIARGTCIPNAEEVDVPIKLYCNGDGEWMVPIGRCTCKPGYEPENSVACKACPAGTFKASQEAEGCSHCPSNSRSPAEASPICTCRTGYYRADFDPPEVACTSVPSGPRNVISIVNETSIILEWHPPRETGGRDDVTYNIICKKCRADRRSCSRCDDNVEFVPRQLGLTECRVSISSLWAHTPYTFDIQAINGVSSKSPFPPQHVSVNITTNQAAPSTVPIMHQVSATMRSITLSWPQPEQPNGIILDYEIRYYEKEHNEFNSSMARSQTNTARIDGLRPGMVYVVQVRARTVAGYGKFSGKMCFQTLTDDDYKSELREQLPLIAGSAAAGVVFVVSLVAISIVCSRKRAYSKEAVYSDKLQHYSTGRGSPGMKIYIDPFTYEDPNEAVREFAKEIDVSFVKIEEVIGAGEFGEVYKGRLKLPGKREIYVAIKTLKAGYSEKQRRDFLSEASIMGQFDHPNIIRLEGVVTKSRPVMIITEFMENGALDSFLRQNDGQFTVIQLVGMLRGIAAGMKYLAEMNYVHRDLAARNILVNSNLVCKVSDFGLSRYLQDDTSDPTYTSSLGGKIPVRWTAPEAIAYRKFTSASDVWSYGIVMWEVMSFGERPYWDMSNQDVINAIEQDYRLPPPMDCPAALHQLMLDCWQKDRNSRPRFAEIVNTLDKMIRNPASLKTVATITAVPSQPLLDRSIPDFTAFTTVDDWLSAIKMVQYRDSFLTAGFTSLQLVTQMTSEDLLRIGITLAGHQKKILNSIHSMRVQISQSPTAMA
T2 sequence (P00533 25-1210): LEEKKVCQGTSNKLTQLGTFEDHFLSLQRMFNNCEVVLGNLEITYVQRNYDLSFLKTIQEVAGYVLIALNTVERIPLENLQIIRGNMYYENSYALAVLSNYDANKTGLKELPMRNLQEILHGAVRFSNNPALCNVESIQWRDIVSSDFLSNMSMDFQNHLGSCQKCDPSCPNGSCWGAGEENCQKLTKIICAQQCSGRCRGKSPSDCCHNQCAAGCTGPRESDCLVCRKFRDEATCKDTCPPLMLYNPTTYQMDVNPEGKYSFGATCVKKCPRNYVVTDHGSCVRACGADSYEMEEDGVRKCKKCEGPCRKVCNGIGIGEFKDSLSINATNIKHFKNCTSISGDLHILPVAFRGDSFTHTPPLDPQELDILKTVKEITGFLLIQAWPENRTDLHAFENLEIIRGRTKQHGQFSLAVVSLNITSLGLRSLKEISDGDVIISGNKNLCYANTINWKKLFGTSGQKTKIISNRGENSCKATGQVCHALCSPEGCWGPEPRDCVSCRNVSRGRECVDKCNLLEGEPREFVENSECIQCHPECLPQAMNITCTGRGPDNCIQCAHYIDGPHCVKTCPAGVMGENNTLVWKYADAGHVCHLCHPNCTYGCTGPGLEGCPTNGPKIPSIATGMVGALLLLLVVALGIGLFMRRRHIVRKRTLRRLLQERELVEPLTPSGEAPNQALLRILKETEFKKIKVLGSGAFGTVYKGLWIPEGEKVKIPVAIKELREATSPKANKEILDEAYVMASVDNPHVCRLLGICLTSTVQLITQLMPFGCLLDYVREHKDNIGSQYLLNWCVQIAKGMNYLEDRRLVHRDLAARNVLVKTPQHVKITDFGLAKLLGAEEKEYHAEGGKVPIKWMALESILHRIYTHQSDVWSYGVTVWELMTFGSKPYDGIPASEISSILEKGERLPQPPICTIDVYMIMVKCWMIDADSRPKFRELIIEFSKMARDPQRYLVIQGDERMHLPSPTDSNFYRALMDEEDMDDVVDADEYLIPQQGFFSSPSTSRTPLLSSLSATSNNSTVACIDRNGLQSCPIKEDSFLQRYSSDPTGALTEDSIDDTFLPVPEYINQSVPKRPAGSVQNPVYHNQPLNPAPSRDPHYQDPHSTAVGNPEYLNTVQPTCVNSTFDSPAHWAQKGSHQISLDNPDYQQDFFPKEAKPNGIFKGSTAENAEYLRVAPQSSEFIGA
T8 sequence (P21709 26-976): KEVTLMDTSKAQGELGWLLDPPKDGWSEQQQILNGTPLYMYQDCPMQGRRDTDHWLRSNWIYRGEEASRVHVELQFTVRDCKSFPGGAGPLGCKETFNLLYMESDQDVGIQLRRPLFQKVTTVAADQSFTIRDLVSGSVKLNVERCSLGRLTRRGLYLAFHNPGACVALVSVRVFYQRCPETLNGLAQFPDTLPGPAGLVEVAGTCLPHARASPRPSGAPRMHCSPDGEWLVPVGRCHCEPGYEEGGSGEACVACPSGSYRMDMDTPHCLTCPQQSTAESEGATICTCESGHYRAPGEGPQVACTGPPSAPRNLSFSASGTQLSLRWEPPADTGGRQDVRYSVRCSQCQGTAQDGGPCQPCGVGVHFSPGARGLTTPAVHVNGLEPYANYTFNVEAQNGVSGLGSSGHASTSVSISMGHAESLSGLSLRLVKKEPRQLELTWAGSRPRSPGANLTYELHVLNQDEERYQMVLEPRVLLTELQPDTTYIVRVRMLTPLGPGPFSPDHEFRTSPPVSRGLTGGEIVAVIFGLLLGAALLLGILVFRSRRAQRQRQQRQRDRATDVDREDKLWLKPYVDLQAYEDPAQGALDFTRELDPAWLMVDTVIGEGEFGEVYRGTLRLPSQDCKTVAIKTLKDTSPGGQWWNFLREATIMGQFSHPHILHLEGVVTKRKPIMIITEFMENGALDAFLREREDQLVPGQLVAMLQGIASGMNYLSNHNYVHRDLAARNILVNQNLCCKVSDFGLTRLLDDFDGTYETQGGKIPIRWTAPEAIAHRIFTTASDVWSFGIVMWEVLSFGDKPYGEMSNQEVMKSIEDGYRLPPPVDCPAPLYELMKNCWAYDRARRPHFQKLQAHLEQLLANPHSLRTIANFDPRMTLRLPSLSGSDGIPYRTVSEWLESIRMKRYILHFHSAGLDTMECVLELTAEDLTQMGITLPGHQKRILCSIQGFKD
T14 sequence (P00533 with tags, fused parts or gaps DEL746-750 limits assumed): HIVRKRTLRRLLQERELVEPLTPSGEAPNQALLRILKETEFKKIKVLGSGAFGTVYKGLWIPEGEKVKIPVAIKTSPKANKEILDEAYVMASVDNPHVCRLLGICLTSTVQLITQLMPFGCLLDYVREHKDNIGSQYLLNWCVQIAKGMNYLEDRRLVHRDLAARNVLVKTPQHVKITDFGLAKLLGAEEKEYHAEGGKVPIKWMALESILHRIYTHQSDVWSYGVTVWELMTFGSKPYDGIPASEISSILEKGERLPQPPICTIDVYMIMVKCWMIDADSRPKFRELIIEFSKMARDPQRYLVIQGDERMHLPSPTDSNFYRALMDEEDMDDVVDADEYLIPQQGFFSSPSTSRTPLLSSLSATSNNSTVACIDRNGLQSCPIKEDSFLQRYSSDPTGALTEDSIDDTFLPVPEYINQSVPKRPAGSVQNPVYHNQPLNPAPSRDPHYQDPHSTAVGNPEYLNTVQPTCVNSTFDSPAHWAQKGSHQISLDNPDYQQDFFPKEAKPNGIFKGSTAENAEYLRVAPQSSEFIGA

remaining activity at 0.5 µM ([1]; 0.5 µM test compound): 44%
remaining activity at 10 µM ([1]; 10 µM test compound): 13%
remaining activity at 0.5 µM ([2]; 0.5 µM test compound): 47%
remaining activity at 10 µM ([2]; 10 µM test compound): 16%
remaining activity at 0.5 µM ([3]; 0.5 µM test compound): 9%
remaining activity at 10 µM ([3]; 10 µM test compound): 36%
remaining activity at 0.5 µM ([4]; 0.5 µM test compound): 57%
remaining activity at 10 µM ([4]; 10 µM test compound): 5%
remaining activity at 0.5 µM ([5]; 0.5 µM test compound): 29%
remaining activity at 10 µM ([5]; 10 µM test compound): 6%
remaining activity at 0.5 µM ([6]; 0.5 µM test compound): 50%
remaining activity at 10 µM ([6]; 10 µM test compound): 5%
remaining activity at 0.5 µM ([7]; 0.5 µM test compound): 39%
remaining activity at 10 µM ([7]; 10 µM test compound): 3%
remaining activity at 0.5 µM ([8]; 0.5 µM test compound): 54%
remaining activity at 10 µM ([8]; 10 µM test compound): 13%
remaining activity at 0.5 µM ([9]; 0.5 µM test compound): 10%
remaining activity at 10 µM ([9]; 10 µM test compound): 6%
remaining activity at 0.5 µM ([10]; 0.5 µM test compound): 49%
remaining activity at 10 µM ([10]; 10 µM test compound): 10%
remaining activity at 0.5 µM ([11]; 0.5 µM test compound): 52%
remaining activity at 10 µM ([11]; 10 µM test compound): 7%
remaining activity at 0.5 µM ([12]; 0.5 µM test compound): 47%
remaining activity at 10 µM ([12]; 10 µM test compound): 15%
remaining activity at 0.5 µM ([13]; 0.5 µM test compound): 54%
remaining activity at 10 µM ([13]; 10 µM test compound): 9%
remaining activity at 0.5 µM ([14]; 0.5 µM test compound): 28%
remaining activity at 10 µM ([14]; 10 µM test compound): 10%
SMILES: Cn1c(=O)c(-c2c(Cl)cccc2Cl)cc2c(N)nc(Nc3ccccc3)nc21 [Compound (1), 4-amino-6-(2,6-dichlorophenyl)-8-methyl-2-(phenylamino)-pyrido[2,3-d]pyrimidin-7(8H)-one]
